Test results from patent US11939294B1 (priority 2023, dated 2024).

Tested on: multidrug-resistant (MDR) strains of Mycobacterium tuberculosis
Assay: microbe, parasite or virus in culture
Type: cell-based
Details: 192 h, read-out: MIC (μg/mL) MDR-TB, MDR-TB: resistant at least to isoniazid and rifampicin, REMA, 8 days incubation at 37° C.

**Q.** How did the MIC turn out when `Cc1cc(C)c[n+](CC(=O)c2ccc(F)cc2)c1.[Br-]` [Compound 3d, 1-(2-(4-Fluorophenyl)-2-oxoethyl)-3,5-dimethylpyridin-1-ium bromide] was run?
**A.** ~8 µg/mL
